Assay [1] has as its target T1, NLRP3 (Homo sapiens, UniProt Q96P20). Description: THP-1 cells pyroptosis assay (LPS priming, nigericin, resazurin read-out). It counts as cell-based. The arrangement: Seed THP-1 cells (25,000 cells/well) containing 1.0 μg/ml LPS; host or cells: THP-1 cells. Conditions: 1.0 μg/ml LPS, 5 μM nigericin. Here is the method: THP-1 cells (ATCC #TIB-202) were grown in RPMI containing L-glutamine (Gibco #11835) supplemented with 1 mM sodium pyruvate (Sigma #S8636) and penicillin (100 units/ml)/streptomycin (0.1 mg/ml) (Sigma #P4333) in 10% Fetal Bovine Serum (FBS) (Sigma #F0804). The cells were routinely passaged and grown to confluency (˜10^6 cells/ml). On the day of the experiment, THP-1 cells were harvested and resuspended into RPMI medium (without FBS). The cells were then counted and viability (>90%) checked by Trypan blue (Sigma #T8154). Appropriate dilutions were made to give a concentration of 625,000 cells/ml. To this diluted cell solution was added LPS (Sigma #L4524) to give a lug/ml Final Assay Concentration (FAC). 40 μl of the final preparation was aliquoted into each well of a 96-well plate. The plate thus prepared was used for compound screening.
The following method step-by-step assay was followed for compound screening. • 1. Seed THP-1 cells (25,000 cells/well) containing 1.0 μg/ml LPS in 40 μl of RPMI medium (without FBS) in 96-well, black walled, clear bottom cell culture plates coated with poly-D-lysine (VWR #734-0317) • 2. Add 5 μl compound (8 points half-log dilution, with 10 μM top dose) or vehicle (DMSO 0.1% FAC) to the appropriate wells • 3. Incubate for 3 hours at 37° C., 5% CO2 • 4. Add 5 μl nigericin (Sigma #N7143) (FAC 5 μM) to all wells • 5. Incubate for 1 hr at 37° C., 5% CO2 • 6. At the end of the incubation period, spin plates at 300×g for 3 mins and remove supernatant • 7. Then add 50 μl of resazurin (Sigma #R7017) (FAC 100 μM resazurin in RPMI medium without FBS) and incubate plates for a further 1-2 hours at 37° C. and 5% CO2 • 8. Plates were read in an Envision reader at Ex 560 nm and Em 590 nm • 9. IC50 data is fitted to a non-linear regression equation (log inhibitor vs response-variable slope 4-parameters)

Assay [2] deals with T1, NLRP3. Description: Human whole blood IL-1β release assay (LPS, nigericin, AlphaLisa). The format is cell-based. The arrangement: Human whole blood in Li-heparin tubes was obtained from healthy donors; from tissue; host or cells: human whole blood from healthy donors. The note with it: 10 μM nigericin. How it is done:
For systemic delivery, the ability to inhibit NLRP3 when the compounds are present within the bloodstream is of great importance. For this reason, the NLRP3 inhibitory activity of a number of compounds in human whole blood was investigated in accordance with the following protocol.
Human whole blood in Li-heparin tubes was obtained from healthy donors from a volunteer donor panel. • 1. Plate out 80 μl of whole blood containing lug/ml of LPS in 96-well, clear bottom cell culture plate (Corning #3585) • 2. Add 10 μl compound (8 points half-log dilution with 10 μM top dose) or vehicle (DMSO 0.1% FAC) to the appropriate wells • 3. Incubate for 3 hours at 37° C., 5% CO2 • 4. Add 10 μl nigericin (Sigma #N7143) (10 μM FAC) to all wells • 5. Incubate for 1 hr at 37° C., 5% CO2 • 6. At the end of the incubation period, spin plates at 300×g for 5 mins to pellet cells and remove 20 μl of supernatant and add to 96-well v-bottom plates for IL-1β analysis (note: these plates containing the supernatants can be stored at −80° C. to be analysed at a later date) • 7. IL-1β was measured according to the manufacturer protocol (Perkin Elmer-AlphaLisa IL-1 Kit AL220F-5000) • 8. IC50 data is fitted to a non-linear regression equation (log inhibitor vs response-variable slope 4-parameters)

T1 sequence (Q96P20 whole entry): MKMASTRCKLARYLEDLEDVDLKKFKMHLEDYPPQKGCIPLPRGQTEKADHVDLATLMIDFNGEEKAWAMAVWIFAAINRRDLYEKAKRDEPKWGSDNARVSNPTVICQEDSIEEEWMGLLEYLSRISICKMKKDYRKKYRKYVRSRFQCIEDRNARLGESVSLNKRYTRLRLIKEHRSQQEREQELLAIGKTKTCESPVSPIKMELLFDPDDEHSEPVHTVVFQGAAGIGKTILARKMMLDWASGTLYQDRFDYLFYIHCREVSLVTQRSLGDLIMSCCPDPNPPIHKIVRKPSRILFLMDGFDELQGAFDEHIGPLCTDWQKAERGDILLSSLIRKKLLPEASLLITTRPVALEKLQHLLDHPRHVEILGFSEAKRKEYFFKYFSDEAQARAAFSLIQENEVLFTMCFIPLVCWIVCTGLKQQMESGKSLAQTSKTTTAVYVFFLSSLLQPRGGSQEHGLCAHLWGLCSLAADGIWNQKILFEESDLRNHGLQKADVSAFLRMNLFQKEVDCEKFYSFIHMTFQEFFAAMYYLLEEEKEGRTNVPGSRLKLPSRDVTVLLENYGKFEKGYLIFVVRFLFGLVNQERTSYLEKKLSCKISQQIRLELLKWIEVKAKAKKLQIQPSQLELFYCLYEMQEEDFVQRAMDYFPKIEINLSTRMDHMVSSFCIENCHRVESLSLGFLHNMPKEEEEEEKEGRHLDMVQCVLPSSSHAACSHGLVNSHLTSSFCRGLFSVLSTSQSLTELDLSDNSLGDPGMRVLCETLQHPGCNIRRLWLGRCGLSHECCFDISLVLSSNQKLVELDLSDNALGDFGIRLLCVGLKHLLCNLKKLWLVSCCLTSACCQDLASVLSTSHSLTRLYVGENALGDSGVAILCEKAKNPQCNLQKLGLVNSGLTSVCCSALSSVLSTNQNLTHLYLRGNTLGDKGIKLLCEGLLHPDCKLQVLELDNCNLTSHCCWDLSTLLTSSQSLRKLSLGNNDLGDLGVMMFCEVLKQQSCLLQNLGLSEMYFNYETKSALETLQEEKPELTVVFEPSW

Turning to `Cc1nc(NC2CCCN(C(C)(C)C)C2)nnc1-c1ccc(C(F)(F)F)cc1O` (single isomer, unassigned) [Example 11, 2-[3-[[(3S or 3R)-1-tert-Butyl-3-piperidyl]amino]-5-methyl-1,2,4-triazin-6-yl]-5-(trifluoromethyl) phenol], the figures for the 50% inhibitory concentration (IC50) at NLRP3 [1] and against NLRP3 [2] were 2.2 nM and 15.6 nM, respectively.

`Cc1nc(NC2CCCN3CCCC23)nnc1-c1ccc(C(F)(F)F)cc1O` (single isomer, unassigned) [Example 28]: the IC50 at NLRP3 [1] was determined as 2.4 nM; at NLRP3 [2] it was 18.8 nM.

For `Cc1nc(NC2CCC3CCCN3C2)nnc1-c1ccc(C(F)(F)F)cc1O` (single isomer, unassigned) [Example 32, 2-[3-[[(6R or 6S,8aS or 8aR)-1,2,3,5,6,7,8,8a-octahydroindolizin-6-yl]amino]-5-methyl-1,2,4-triazin-6-yl]-5-(trifluoromethyl) phenol], the IC50 at NLRP3 [1] was 16.1 nM; at NLRP3 [2], 36.5 nM.

For `Cc1nc(NC2CCC3CCCN3C2)nnc1-c1ccc(C(F)(F)F)cc1O` (single isomer, unassigned) [Example 33, 2-[3-[[(6S or 6R,8aR or 8aS)-1,2,3,5,6,7,8,8a-octahydroindolizin-6-yl]amino]-5-methyl-1,2,4-triazin-6-yl]-5-(trifluoromethyl) phenol], the IC50 came to 46.1 nM at NLRP3 [1] and 300 nM against NLRP3 [2].

Turning to `CCN1CCC[C@@H](Nc2ncc(-c3c(C)cc(C(F)(F)F)cc3O)nn2)C1` [Example 1, 2-[3-[[(3R)-1-Ethyl-3-piperidyl]amino]-1,2,4-triazin-6-yl]-3-methyl-5-(trifluoromethyl) phenol; 2,2,2-trifluoroacetic acid], the values for the IC50 on NLRP3 [1] and against NLRP3 [2] were 9 nM and 39 nM, respectively.

For the compound `Cc1nc(N[C@H]2C[C@@](C)(O)C2)nnc1-c1ccc(C(F)(F)F)cc1O` [Example 3, 2-[3-[(3-Hydroxy-3-methyl-cyclobutyl)amino]-5-methyl-1,2,4-triazin-6-yl]-5-(trifluoromethyl) phenol], the 50% inhibitory concentration (IC50) at NLRP3 [1] came to 107 nM; on NLRP3 [2], 191 nM.

In the case of `CCN1CCC[C@@H](Nc2nnc(-c3ccc(Cl)cc3O)c(C)n2)C1` [Example 5, 5-Chloro-2-[3-[[(3R)-1-ethyl-3-piperidyl]amino]-5-methyl-1,2,4-triazin-6-yl]phenol], the IC50 stood at 1.3 nM on NLRP3 [1] and 3.8 nM against NLRP3 [2].

`CCN1CCC[C@@H](Nc2nnc(-c3ccc(F)cc3O)c(C)n2)C1` [Example 6, 2-[3-[[(3R)-1-Ethyl-3-piperidyl]amino]-5-methyl-1,2,4-triazin-6-yl]-5-fluoro-phenol]: the IC50 stood at 15.5 nM on NLRP3 [1] and 14.6 nM against NLRP3 [2].

`CCN1CCC[C@@H](Nc2nnc(-c3ccc4c(c3O)CC4)c(C)n2)C1` [Example 8, 3-[3-[[(3R)-1-Ethyl-3-piperidyl]amino]-5-methyl-1,2,4-triazin-6-yl]bicyclo[4.2.0]octa-1(6),2,4-trien-2-ol]: the IC50 at NLRP3 [1] is 0.4 nM; against NLRP3 [2], 4.3 nM.

In the case of `CCN1CCC[C@@H](Nc2nnc(-c3c(O)cc(C(F)(F)F)cc3F)c(C)n2)C1` [Example 9, 2-[3-[[(3R)-1-Ethyl-3-piperidyl]amino]-5-methyl-1,2,4-triazin-6-yl]-3-fluoro-5-(trifluoromethyl) phenol], the values for the IC50 at NLRP3 [1] and on NLRP3 [2] were 3.5 nM and 27.4 nM, respectively.

As for `CCN1CCC[C@@H](Nc2nnc(-c3ccc(C#N)cc3O)c(C)n2)C1` [Example 12, 4-[3-[[(3R)-1-Ethyl-3-piperidyl]amino]-5-methyl-1,2,4-triazin-6-yl]-3-hydroxy-benzonitrile], the IC50 is 20.5 nM at NLRP3 [1] and 23.9 nM on NLRP3 [2].

As to `Cc1nc(N[C@@H]2CCCN(C)C2)nnc1-c1ccc(F)cc1O` [Example 15, 5-Fluoro-2-[5-methyl-3-[[(3R)-1-methyl-3-piperidyl]amino]-1,2,4-triazin-6-yl]phenol], the concentration for half-maximal inhibition (IC50) was found to be 18.3 nM at NLRP3 [1] and 15.1 nM against NLRP3 [2].

On to `Cc1nc(N[C@@H]2CCCN(C)C2)nnc1-c1ccc(Cl)cc1O` [Example 16, 5-Chloro-2-[5-methyl-3-[[(3R)-1-methyl-3-piperidyl]amino]-1,2,4-triazin-6-yl]phenol], for which the IC50 is 1.5 nM on NLRP3 [1] and 13.2 nM on NLRP3 [2].

For the compound `Cc1nc(N[C@@H]2CCCNC2)nnc1-c1ccc(C(F)(F)F)cc1O` [Example 17, 2-[5-Methyl-3-[[(3R)-3-piperidyl]amino]-1,2,4-triazin-6-yl]-5-(trifluoromethyl) phenol], the IC50 turned out to be 13.4 nM on NLRP3 [1] and 46.5 nM against NLRP3 [2].

Regarding `Cc1nc(N[C@@H]2CCCN(C)C2)nnc1-c1ccc(C(F)(F)F)cc1O` [Example 18, 2-[5-Methyl-3-[[(3R)-1-methyl-3-piperidyl]amino]-1,2,4-triazin-6-yl]-5-(trifluoromethyl) phenol], the IC50 at NLRP3 [1] is 1 nM; on NLRP3 [2] it was 20.2 nM.

For `Cc1nc(N[C@@H]2CCCC[C@H]2O)nnc1-c1ccc(C(F)(F)F)cc1O` [Example 19, 2-[3-[[(1R,2R)-2-Hydroxycyclohexyl]amino]-5-methyl-1,2,4-triazin-6-yl]-5-(trifluoromethyl) phenol], the IC50 was 32.2 nM on NLRP3 [1] and 228 nM on NLRP3 [2].

`CCN1CCC[C@@H](Nc2nnc(-c3c(C)cc(C(F)(F)F)cc3O)c(C)n2)C1` [Example 21, 2-[3-[[(3R)-1-Ethyl-3-piperidyl]amino]-5-methyl-1,2,4-triazin-6-yl]-3-methyl-5-(trifluoromethyl) phenol]: the IC50 on NLRP3 [1] is 1.6 nM; on NLRP3 [2] it was 57.6 nM.

On to `CCN1CCC[C@@H](Nc2nnc(-c3ccc(OC(F)(F)F)cc3O)c(C)n2)C1` [Example 22, 2-[3-[[(3R)-1-Ethyl-3-piperidyl]amino]-5-methyl-1,2,4-triazin-6-yl]-5-(trifluoromethoxy) phenol], for which the half-inhibitory concentration (IC50) worked out at 1.2 nM at NLRP3 [1] and 10.2 nM at NLRP3 [2].

Turning to `CCN1C[C@@H](O)C[C@@H](Nc2nnc(-c3ccc(C(F)(F)F)cc3O)c(C)n2)C1` [Example 23, (3S,5R)-1-Ethyl-5-[[6-[2-hydroxy-4-(trifluoromethyl)phenyl]-5-methyl-1,2,4-triazin-3-yl]amino]piperidin-3-ol], the IC50 at NLRP3 [1] amounted to 40.1 nM; against NLRP3 [2], 40.5 nM.

As for `CCN1C[C@@H](O)C[C@@H](Nc2nnc(-c3c(C)cc(C(F)(F)F)cc3O)c(C)n2)C1` [Example 24, (3S,5R)-1-Ethyl-5-[[6-[2-hydroxy-6-methyl-4-(trifluoromethyl)phenyl]-5-methyl-1,2,4-triazin-3-yl]amino]piperidin-3-ol], the half-inhibitory concentration (IC50) at NLRP3 [1] was 49.6 nM; on NLRP3 [2], 125 nM.

For `CCN1CCC[C@@H](Nc2nnc(-c3ccc4c(c3O)CCC4)c(C)n2)C1` [Example 25, 5-[3-[[(3R)-1-Ethyl-3-piperidyl]amino]-5-methyl-1,2,4-triazin-6-yl]indan-4-ol], the IC50 on NLRP3 [1] is 0.7 nM; against NLRP3 [2], 6.3 nM.

Values taken from patent US12421209B2, “Compounds” (Hoffmann-La Roche Inc., priority 2021, dated 2025).
